Like-named read-outs stand apart in the source and are kept apart here. Some results are limits rather than exact numbers.

We go through 18 molecules from patent US12060349B2, “Glucosylceramide synthase inhibitors” (Genzyme Corporation, priority 2012, dated 2024).

One assay relates to C32 human melanoma cells. Briefly: cell viability in the C32 cell-based assay (Viability, C32 IC50). To be noted: Homo sapiens, concentration causing 50% cell death, values greater than 10 represent a lack of cell death. An outline of the steps: (§1)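 Cell death was scored within the cell-based GM3 experiment for each line. The viability value is the concentration producing 50% death, and numbers exceeding 10 signify no cytotoxicity.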

Assay [1] deals with GM3 expression on the cell surface, B16 mouse melanoma cells. Briefly: cell based phenotypic assay, cell surface GM3 by antibody mediated immunofluorescence, B16 (GM3 B16 IC50). To be noted: Mus musculus, 50% inhibition of GM3 expression on the cell surface. The essentials:
(§2)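 Two melanoma lines, mouse B16 and human C32, were treated and surface GM3 quantified by antibody immunofluorescence for IC50. A parallel viability readout gives the concentration killing 50% of cells, with values over 10 indicating no cell death.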

In assay [2] the test system is GM3 expression on the cell surface, C32 human melanoma cells. Briefly: cell based phenotypic assay, cell surface GM3 by antibody mediated immunofluorescence, C32 (GM3 C32 IC50). To be noted: Homo sapiens, 50% inhibition of GM3 expression on the cell surface. An outline of the steps: as §2
Another assay relates to B16 mouse melanoma cells. In words: cell viability in the B16 cell-based assay (Viability, B16 IC50). To be noted: Mus musculus. The essentials:
as §1

Assay [3] addresses T1, glucosylceramide synthase (Homo sapiens, UniProt Q16739).
T1 construct: Microsomes were isolated from A375 human melanoma cells; endogenous in cells; host or cells: A375 human melanoma cells (microsomal fraction, 100,000 g pellet)
T1 sequence (Q16739 1-394): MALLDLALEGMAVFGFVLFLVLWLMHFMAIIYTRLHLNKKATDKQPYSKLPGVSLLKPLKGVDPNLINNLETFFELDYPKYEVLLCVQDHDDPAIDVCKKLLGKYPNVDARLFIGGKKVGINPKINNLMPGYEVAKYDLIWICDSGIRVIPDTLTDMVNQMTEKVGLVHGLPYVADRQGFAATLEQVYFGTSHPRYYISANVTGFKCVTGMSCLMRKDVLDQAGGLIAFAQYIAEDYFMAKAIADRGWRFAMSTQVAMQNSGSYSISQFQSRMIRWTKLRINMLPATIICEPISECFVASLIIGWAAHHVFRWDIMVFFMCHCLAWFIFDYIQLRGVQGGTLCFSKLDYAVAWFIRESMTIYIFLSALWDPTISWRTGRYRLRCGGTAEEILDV
In words: microsomal assay measuring conversion of ceramide to glucosylceramide by HPLC (GCS IC50). The assay is classed as biochemical. To be noted: concentration causing 50% inhibition of glucosylceramide synthase activity. An outline of the steps: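 IC50 is the compound concentration halving glucosylceramide synthase activity. Activity was measured in microsomes, with HPLC quantifying glucosylceramide formed from ceramide.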

[4] abbreviates: C32, read-out: Viability, C32 IC50, C32 cells.
Setting [5] is: read-out: GM3 B16 IC50, B16 mouse melanoma cells.
[6] abbreviates: read-out: GM3 C32 IC50, C32 human melanoma cells.
The mark [7] stands for this setting: B16, read-out: Viability, B16 IC50.
The mark [8] stands for this setting: C32, C32 cells, read-out: Viability, C32 IC50.
[9] abbreviates: B16 mouse melanoma cells, read-out: GM3 B16 IC50.
Where [10] appears, read: C32 human melanoma cells, read-out: GM3 C32 IC50.
The mark [11] stands for this setting: B16, B16 cells, concentration causing 50% cell death, values greater than 10 represent a lack of cell death, read-out: Viability, B16 IC50.

As for `CC(C)(NC(=O)OC1CN2CCC1CC2)c1ccc(-c2ccc(C(=O)N3CCOCC3)cc2)cc1` (stereo not drawn) [Example 265, Quinuclidin-3-yl 2-(4′-(morpholine-4-carbonyl)biphenyl-4-yl)propan-2-ylcarbamate], the IC50 in the assay on C32 human melanoma cells (setting [4]) was 2150 nM; in assay [1] (setting [5]), 454 nM; in assay [2] (setting [6]) it was 39.9 nM; in the assay with B16 mouse melanoma cells (setting [7]), at least 10000 nM; in assay [3], 480 nM.
`CC(C)(NC(=O)OC1CCN2CCC1CC2)c1ccc(-c2ccc(C(=O)N3CCOCC3)cc2)cc1` (stereo not drawn) [Example 266, 1-Azabicyclo[3.2.2]nonan-4-yl 2-(4′-(morpholine-4-carbonyl)biphenyl-4-yl)propan-2-ylcarbamate]: the half-maximal inhibitory concentration (IC50) with C32 human melanoma cells (setting [8]) is 1000 nM; in assay [1] (setting [9]), 284 nM; in assay [2] (setting [10]), 22.7 nM; in the assay on B16 mouse melanoma cells (setting [11]) it was at least 10000 nM; in assay [3], 399 nM.
Taken in the same sequence, the figures for `CC(C)(NC(=O)NC1(C)CN2CCC1CC2)c1ccc(-c2ccc(C(=O)N3CCOCC3)cc2)cc1` (stereo not drawn) [Example 267, 1-(3-Methylquinuclidin-3-yl)-3-(2-(4′-(morpholine-4-carbonyl)biphenyl-4-yl)propan-2-yl)urea] were at least 10000 nM, 2770 nM, 119 nM, 565 nM and 363 nM.
For `CC(C)(NC(=O)NC1(C)CCN2CCC1CC2)c1ccc(-c2ccc(C(=O)N3CCOCC3)cc2)cc1` (stereo not drawn) [Example 268, 1-(4-Methyl-1-azabicyclo[3.2.2]nonan-4-yl)-3-(2-(4′-(morpholine-4-carbonyl)biphenyl-4-yl)propan-2-yl)urea] the same measures were 1000 nM, 648 nM, 31.5 nM, at least 10000 nM and 166 nM.
For `CC(C)(NC(=O)N1CCN2CCC1CC2)c1ccc(-c2ccc(C(=O)N3CCOCC3)cc2)cc1` [Example 269, N-(2-(4′-(Morpholine-4-carbonyl)biphenyl-4-yl)propan-2-yl)-1,4-diazabicyclo[3.2.2]nonane-4-carboxamide] the same measures were at least 10000 nM, 2160 nM, 518 nM, at least 10000 nM and 23000 nM.
For the molecule `CC(C)(NC(=O)OC1CN2CCC1CC2)c1ccc(-c2ccc(C(=O)N3CCC(F)(F)CC3)cc2)cc1` (stereo not drawn) [Example 270, Quinuclidin-3-yl 2-(4′-(4,4-difluoropiperidine-1-carbonyl)biphenyl-4-yl)propan-2-ylcarbamate], the IC50 in the assay with C32 human melanoma cells (setting [4]) is 1000 nM; in assay [1] (setting [5]), 67 nM; in assay [2] (setting [6]), 3.56 nM; with B16 mouse melanoma cells (setting [7]), at least 10000 nM; in assay [3] it was 25 nM.
Regarding `CC(C)(NC(=O)OC1CCN2CCC1CC2)c1ccc(-c2ccc(C(=O)N3CCC(F)(F)CC3)cc2)cc1` (stereo not drawn) [Example 271, 1-Azabicyclo[3.2.2]nonan-4-yl 2-(4′-(4,4-difluoropiperidine-1-carbonyl)biphenyl-4-yl)propan-2-ylcarbamate], the IC50 in the assay on C32 human melanoma cells (setting [8]) was 316 nM; in assay [1] (setting [9]), 60.7 nM; in assay [2] (setting [10]), 2.64 nM; in the assay with B16 mouse melanoma cells (setting [11]), at least 10000 nM; in assay [3], 9.42 nM.
In the case of `CCC1(NC(=O)NC(C)(C)c2ccc(-c3ccc(C(=O)N4CCC(F)(F)CC4)cc3)cc2)CN2CCC1CC2` (stereo not drawn) [Example 272, 1-(2-(4′-(4,4-Difluoropiperidine-1-carbonyl)biphenyl-4-yl)propan-2-yl)-3-(3-ethylquinuclidin-3-yl)urea], the IC50 in the assay with C32 human melanoma cells (setting [8]) is 1000 nM; in assay [1] (setting [9]) it was 24.9 nM; in assay [2] (setting [10]) it was 2.15 nM; in the assay with B16 mouse melanoma cells (setting [11]) it was at least 10000 nM; in assay [3] it was 16.4 nM.
As for `CC(C)(NC(=O)OC1CN2CCC1CC2)c1ccc(-c2ccc(C(=O)N3CC(F)(F)C3)cc2)cc1` (stereo not drawn) [Example 273, Quinuclidin-3-yl 2-(4′-(3,3-difluoroazetidine-1-carbonyl)biphenyl-4-yl)propan-2-ylcarbamate], the half-inhibitory concentration (IC50) in the assay with C32 human melanoma cells (setting [4]) is 3160 nM; in assay [1] (setting [5]), 74 nM; in assay [2] (setting [6]) it was 10.6 nM; in the assay on B16 mouse melanoma cells (setting [7]) it was at least 10000 nM; in assay [3], 108 nM.
For the molecule `CC(C)(NC(=O)OC1CCN2CCC1CC2)c1ccc(-c2ccc(C(=O)N3CC(F)(F)C3)cc2)cc1` (stereo not drawn) [Example 274, 1-Aza-bicyclo[3.2.2]nonan-4-yl 2-(4′-(3,3-difluoroazetidine-1-carbonyl)biphenyl-4-yl)propan-2-ylcarbamate], the IC50 in the assay with C32 human melanoma cells (setting [8]) was 1000 nM; in assay [1] (setting [9]), 67.3 nM; in assay [2] (setting [10]), 4.78 nM; in the assay on B16 mouse melanoma cells (setting [11]), at least 10000 nM; in assay [3] it was 30.4 nM.
With `CCC1(NC(=O)NC(C)(C)c2ccc(-c3ccc(C(=O)N4CC(F)(F)C4)cc3)cc2)CN2CCC1CC2` (stereo not drawn) [Example 275, 1-(2-(4′-(3,3-Difluoroazetidine-1-carbonyl)biphenyl-4-yl)propan-2-yl)-3-(3-ethylquinuclidin-3-yl)urea], the IC50 in the assay with C32 human melanoma cells (setting [8]) is 1000 nM; in assay [1] (setting [9]), 55.4 nM; in assay [2] (setting [10]), 2.92 nM; in the assay with B16 mouse melanoma cells (setting [11]), at least 10000 nM; in assay [3] it was 75.6 nM.
As for `CC(C)(NC(=O)NC1(C)CCN2CCC1CC2)c1cccc(Oc2cccc(C(=O)N3CCOCC3)c2)c1` (stereo not drawn) [Example 276, 1-(4-Methyl-1-azabicyclo[3.2.2]nonan-4-yl)-3-(2-(3-(3-(morpholine-4-carbonyl)phenoxy)phenyl)propan-2-yl)urea], the IC50 was 3160 nM in the assay on C32 human melanoma cells (setting [8]); 1530 nM in assay [1] (setting [9]); 29.6 nM in assay [2] (setting [10]); at least 10000 nM in the assay on B16 mouse melanoma cells (setting [11]); 20 nM in assay [3].
Taken in the same sequence, the figures for `CC(C)(NC(=O)NC1(C)CN2CCC1CC2)c1cccc(Oc2cccc(C(=O)N3CCOCC3)c2)c1` (stereo not drawn) [Example 277, 1-(3-Methylquinuclidin-3-yl)-3-(2-(3-(3-(morpholine-4-carbonyl)phenoxy)phenyl)propan-2-yl)urea] were at least 10000 nM, 2030 nM, 80.1 nM, at least 10000 nM and 91.7 nM.
Taken in the same sequence, the figures for `CC(C)(NC(=O)OC1CCN2CCC1CC2)c1cccc(Oc2cccc(C(=O)N3CCOCC3)c2)c1` (stereo not drawn) [Example 278, 1-Aza-bicyclo[3.2.2]nonan-4-yl 2-(3-(3-(morpholine-4-carbonyl)phenoxy)phenyl)propan-2-ylcarbamate] were at least 10000 nM, 1440 nM, 53 nM, at least 10000 nM and 593 nM.
For `CC(C)(NC(=O)OC1CN2CCC1CC2)c1cccc(Oc2cccc(C(=O)N3CCOCC3)c2)c1` (stereo not drawn) [Example 279, Quinuclidin-3-yl 2-(3-(3-(morpholine-4-carbonyl)phenoxy)phenyl)propan-2-ylcarbamate], the half-maximal inhibitory concentration (IC50) in the assay on C32 human melanoma cells (setting [4]) was 3160 nM; in assay [1] (setting [5]) it was 3920 nM; in assay [2] (setting [6]) it was 217 nM; in the assay on B16 mouse melanoma cells (setting [7]), at least 10000 nM; in assay [3] it was 4330 nM.
In the case of `CC(C)(NC(=O)NC1(C)CN2CCC1CC2)c1ccc(Oc2ccc(C(=O)N3CCOCC3)cc2)cc1` (stereo not drawn) [Example 280, 1-(3-Methylquinuclidin-3-yl)-3-(2-(4-(4-(morpholine-4-carbonyl)phenoxy)phenyl)propan-2-yl)urea], the IC50 in the assay on C32 human melanoma cells (setting [8]) is 1000 nM; in assay [1] (setting [9]), 1940 nM; in assay [2] (setting [10]), 49.1 nM; in the assay on B16 mouse melanoma cells (setting [11]) it was at least 10000 nM; in assay [3] it was 164 nM.
Taken in the same sequence, the figures for `CC(C)(NC(=O)NC1(C)CCN2CCC1CC2)c1ccc(Oc2ccc(C(=O)N3CCOCC3)cc2)cc1` (stereo not drawn) [Example 281, 1-(4-Methyl-1-azabicyclo[3.2.2]nonan-4-yl)-3-(2-(4-(4-(morpholine-4-carbonyl)phenoxy)phenyl)propan-2-yl)urea] were 1000 nM, 440 nM, 7.79 nM, at least 10000 nM and 31.6 nM.
For `CC(C)(NC(=O)OC1CCN2CCC1CC2)c1ccc(Oc2ccc(C(=O)N3CCOCC3)cc2)cc1` (stereo not drawn) [Example 282, 1-Azabicyclo[3.2.2]nonan-4-yl 2-(4-(4-(morpholine-4-carbonyl)phenoxy)phenyl)propan-2-ylcarbamate] the same measures were 3160 nM, 660 nM, 40.4 nM, at least 10000 nM and 479 nM.
